# Patent US10155259B2 (Merck Sharp & Dohme B.V., priority 2011, dated 2018)
# Biological target: T1, human FSH receptor (Homo sapiens, UniProt P23945)
# T1 construct: expressed in transfected cells; host or cells: CHO cells, stably transfected; cotransfected with CRE-luciferase reporter
# T1 sequence (P23945 18-695): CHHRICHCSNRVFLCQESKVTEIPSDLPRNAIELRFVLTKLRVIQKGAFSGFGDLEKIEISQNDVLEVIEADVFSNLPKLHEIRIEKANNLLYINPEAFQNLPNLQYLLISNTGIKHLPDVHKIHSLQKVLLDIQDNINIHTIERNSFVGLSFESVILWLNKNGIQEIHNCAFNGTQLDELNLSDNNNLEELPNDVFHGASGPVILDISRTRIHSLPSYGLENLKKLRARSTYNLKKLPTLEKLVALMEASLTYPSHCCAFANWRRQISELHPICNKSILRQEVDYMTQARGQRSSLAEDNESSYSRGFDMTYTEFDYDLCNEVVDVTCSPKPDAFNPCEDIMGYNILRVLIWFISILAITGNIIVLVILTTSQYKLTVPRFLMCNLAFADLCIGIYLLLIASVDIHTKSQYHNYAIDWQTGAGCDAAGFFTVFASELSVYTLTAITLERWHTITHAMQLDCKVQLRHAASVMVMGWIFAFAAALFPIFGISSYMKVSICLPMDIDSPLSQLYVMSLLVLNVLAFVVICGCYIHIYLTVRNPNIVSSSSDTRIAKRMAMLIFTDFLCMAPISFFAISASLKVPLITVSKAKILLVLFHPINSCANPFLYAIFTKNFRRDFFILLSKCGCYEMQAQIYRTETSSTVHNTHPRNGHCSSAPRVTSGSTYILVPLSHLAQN
# Test: Antagonistic activity of compounds at the human FSH receptor expressed in CHO cells (CRE-luciferase reporter)
# Type: cell-based
# Conditions: CHO cells stably transfected with human FSH receptor and CRE/luciferase reporter; together with 49 μM recFSH; 4 hours incubation; 1% DMSO; read-out: IC50 (concentration of test compound causing half-maximal inhibition of the maximally attainable inhibition of the luciferase stimulation)
# Experimental: Antagonistic Activity of Compounds at the Human FSH Receptor Expressed in CHO Cells
# Antagonistic activity of the compounds at the human FSH receptor was determined in Chinese Hamster Ovary (CHO) cells stably transfected with the human FSH receptor and cotransfected with a cAMP responsive element (CRE)/promotor directing the expression of a firefly luciferase reporter gene. Binding of the compounds to the Gs protein-coupled FSH receptor will result in an increase of cAMP, which in turn will induce an increased transactivation of the luciferase reporter. The cells (7,500 cells/well of a 384 well plate) were incubated in Dulbecco' minimal essential F12 modified medium (Invitrogen), supplemented with 1 μg/ml bovine insulin, 5 μg/ml human apo-transferrin, 100 U/ml penicillin G and 100 μg/ml streptomycin with the test compounds (concentration between 0.316 nM and 10.0 μM) in duplicate together with […] (which, at this concentration in the absence of test compound, induces 80% of the maximal luciferase stimulation) in a humidified atmosphere (95%) at 5-7% CO2 and 37° C. The final concentration of DMSO was 1%. After 4 hours of incubation, plates were allowed to adjust to room temperature for 1 hour. Then, SteadyLite (PerkinElmer) solution was added to the wells and cells were allowed to lyse for at least 1 hour at room temperature. Subsequently, luciferase activity was measured in a luminescence counter. The signal is expressed as counts per second (cps). The IC50 (concentration of test compound causing half-maximal (50%) inhibition of the maximally attainable inhibition of the luciferase stimulation by the compound) and efficacy of the compounds were determined using the software program MathIQ (version 2.3, ID Business Solutions Limited).
row,Structure (SMILES),IC50
1,"COc1cc2c(cc1OC(C)C)-c1cc(C(=O)N[C@@H](CO)Cc3c[nH]c4ccccc34)c(C(=O)C3CC3)n1CC2 [Example 27, (R)-3-(cyclopropanecarbonyl)-N-(1-hydroxy-3-(1H-indol-3-yl)propan-2-yl)-9-isopropoxy-8-methoxy-5,6-dihydropyrrolo[2,1-a]isoquinoline-2-carboxamide]",< 100 nM
2,"COc1cc2c(cc1OC(C)C)-c1cc(C(=O)N[C@@H](CO)Cc3c[nH]c4ccccc34)c(C(=O)c3cccs3)n1CC2 [Example 28, (R)—N-(1-hydroxy-3-(1H-indol-3-yl)propan-2-yl)-9-isopropoxy-8-methoxy-3-(thiophene-2-carbonyl)-5,6-dihydropyrrolo[2,1-a]isoquinoline-2-carboxamide]",< 100 nM
3,"COc1cc2c(cc1OC(C)C)-c1cc(C(=O)N[C@@H](CO)Cc3c[nH]c4ccccc34)c(C(=O)c3ccccc3)n1CC2 [Example 29, (R)-3-benzoyl-N-(1-hydroxy-3-(1H-indol-3-yl)propan-2-yl)-9-isopropoxy-8-methoxy-5,6-dihydropyrrolo[2,1-a]isoquinoline-2-carboxamide]",< 100 nM
4,"CC(C)Oc1cc2c(cc1OC(C)C)-c1cc(C(=O)N[C@@H](CO)Cc3c[nH]c4ccccc34)c(-c3ccccc3)n1CC2 [Example 30, (R)—N-(1-hydroxy-3-(1H-indol-3-yl)propan-2-yl)-8,9-diisopropoxy-3-phenyl-5,6-dihydropyrrolo[2,1-a]isoquinoline-2-carboxamide]",100 to 1000 nM
5,"COc1cc2c(cc1O)-c1cc(C(=O)N[C@@H](CO)Cc3c[nH]c4ccccc34)c(-c3cccc(F)c3)n1CC2 [Example 31, (R)-3-(3-fluorophenyl)-9-hydroxy-N-(1-hydroxy-3-(1H-indol-3-yl)propan-2-yl)-8-methoxy-5,6-dihydropyrrolo[2,1-a]isoquinoline-2-carboxamide]",100 to 1000 nM
6,"C=CCOc1cc2c(cc1OC)CCn1c-2cc(C(=O)N[C@@H](CO)Cc2c[nH]c3ccccc23)c1-c1cccc(F)c1 [Example 32, (R)-9-(allyloxy)-3-(3-fluorophenyl)-N-(1-hydroxy-3-(1H-indol-3-yl)propan-2-yl)-8-methoxy-5,6-dihydropyrrolo[2,1-a]isoquinoline-2-carboxamide]",100 to 1000 nM
7,"COCCOc1cc2c(cc1OC)CCn1c-2cc(C(=O)N[C@@H](CO)Cc2c[nH]c3ccccc23)c1-c1cccc(F)c1 [Example 33, (R)-3-(3-fluorophenyl)-N-(1-hydroxy-3-(1H-indol-3-yl)propan-2-yl)-8-methoxy-9-(2-methoxyethoxy)-5,6-dihydropyrrolo[2,1-a]isoquinoline-2-carboxamide]",< 100 nM
8,"COc1cc2c(cc1OCc1ccccc1)-c1cc(C(=O)N[C@@H](CO)Cc3c[nH]c4ccccc34)c(-c3cccc(F)c3)n1CC2 [Example 34, (R)-9-(benzyloxy)-3-(3-fluorophenyl)-N-(1-hydroxy-3-(1H-indol-3-yl)propan-2-yl)-8-methoxy-5,6-dihydropyrrolo[2,1-a]isoquinoline-2-carboxamide]",< 100 nM
9,COc1cc2c(cc1OC1CCCC1)-c1cc(C(=O)N[C@@H](CO)Cc3c[nH]c4ccccc34)c(-c3cccc(F)c3)n1CC2 [Example 35],< 100 nM
10,"COc1cc2c(cc1OCC1CC1)-c1cc(C(=O)N[C@@H](CO)Cc3c[nH]c4ccccc34)c(-c3cccc(F)c3)n1CC2 [Example 36, (R)-9-(cyclopropylmethoxy)-3-(3-fluorophenyl)-N-(1-hydroxy-3-(1H-indol-3-yl)propan-2-yl)-8-methoxy-5,6-dihydropyrrolo[2,1-a]isoquinoline-2-carboxamide]",< 100 nM
11,"CCCC(C)Oc1cc2c(cc1OC)CCn1c-2cc(C(=O)N[C@@H](CO)Cc2c[nH]c3ccccc23)c1-c1cccc(F)c1 (stereo partly drawn) [Example 37, 3-(3-fluorophenyl)-N—((R)-1-hydroxy-3-(1H-indol-3-yl)propan-2-yl)-8-methoxy-9-(pentan-2-yloxy)-5,6-dihydropyrrolo[2,1-a]isoquinoline-2-carboxamide]",< 100 nM
12,"COc1cc2c(cc1OCCO)-c1cc(C(=O)N[C@@H](CO)Cc3c[nH]c4ccccc34)c(-c3cccc(F)c3)n1CC2 [Example 38, (R)-3-(3-fluorophenyl)-N-(1-hydroxy-3-(1H-indol-3-yl)propan-2-yl)-9-(2-hydroxyethoxy)-8-methoxy-5,6-dihydropyrrolo[2,1-a]isoquinoline-2-carboxamide]",< 100 nM
13,"COc1cc2c(cc1OCCN(C)C)-c1cc(C(=O)N[C@@H](CO)Cc3c[nH]c4ccccc34)c(-c3cccc(F)c3)n1CC2 [Example 39, (R)-9-(2-(dimethylamino)ethoxy)-3-(3-fluorophenyl)-N-(1-hydroxy-3-(1H-indol-3-yl)propan-2-yl)-8-methoxy-5,6-dihydropyrrolo[2,1-a]isoquinoline-2-carboxamide]",100 to 1000 nM
14,"COc1cc2c(cc1OCC(O)CO)-c1cc(C(=O)N[C@@H](CO)Cc3c[nH]c4ccccc34)c(-c3cccs3)n1CC2 (stereo partly drawn) [Example 40, 9-(2,3-dihydroxypropoxy)-N—((R)-1-hydroxy-3-(1H-indol-3-yl)propan-2-yl)-8-methoxy-3-(thiophen-2-yl)-5,6-dihydropyrrolo[2,1-a]isoquinoline-2-carboxamide]",< 100 nM
15,C=CCOc1cc2c(cc1OC)CCn1c-2cc(C(=O)N[C@@H](CO)Cc2c[nH]c3ccccc23)c1-c1cccs1 [Example 41],< 100 nM
16,"COc1cc2c(cc1-c1cccnc1)-c1cc(C(=O)N[C@@H](CO)Cc3c[nH]c4ccccc34)c(-c3cccc(F)c3)n1CC2 [Example 42, (R)-3-(3-fluorophenyl)-N-(1-hydroxy-3-(1H-indol-3-yl)propan-2-yl)-8-methoxy-9-(pyridin-3-yl)-5,6-dihydropyrrolo[2,1-a]isoquinoline-2-carboxamide]",< 100 nM
17,"CCc1cc2c(cc1OC)CCn1c-2cc(C(=O)N[C@@H](CO)Cc2c[nH]c3ccccc23)c1-c1cccc(F)c1 [Example 43, (R)-9-ethyl-3-(3-fluorophenyl)-N-(1-hydroxy-3-(1H-indol-3-yl)propan-2-yl)-8-methoxy-5,6-dihydropyrrolo[2,1-a]isoquinoline-2-carboxamide]",< 100 nM
18,"COc1cc2c(cc1C(C)C(C)C)-c1cc(C(=O)N[C@@H](CO)Cc3c[nH]c4ccccc34)c(-c3cccc(F)c3)n1CC2 (stereo partly drawn) [Example 44, 3-(3-fluorophenyl)-N—((R)-1-hydroxy-3-(1H-indol-3-yl)propan-2-yl)-8-methoxy-9-(3-methylbutan-2-yl)-5,6-dihydropyrrolo[2,1-a]isoquinoline-2-carboxamide]",< 100 nM
19,"COc1cc2c(cc1C=C(C)C)-c1cc(C(=O)N[C@@H](CO)Cc3c[nH]c4ccccc34)c(-c3cccc(F)c3)n1CC2 [Example 45, (R)-3-(3-fluorophenyl)-N-(1-hydroxy-3-(1H-indol-3-yl)propan-2-yl)-8-methoxy-9-(2-methylprop-1-enyl)-5,6-dihydropyrrolo[2,1-a]isoquinoline-2-carboxamide]",< 100 nM
20,"COc1cc2c(cc1C(C)=C(C)C)-c1cc(C(=O)N[C@@H](CO)Cc3c[nH]c4ccccc34)c(-c3cccc(F)c3)n1CC2 [Example 46, (R)-3-(3-fluorophenyl)-N-(1-hydroxy-3-(1H-indol-3-yl)propan-2-yl)-8-methoxy-9-(3-methylbut-2-en-2-yl)-5,6-dihydropyrrolo[2,1-a]isoquinoline-2-carboxamide]",100 to 1000 nM
21,"COc1cc2c(cc1C(=O)N1CCOCC1)-c1cc(C(=O)N[C@@H](CO)Cc3c[nH]c4ccccc34)c(-c3cccc(F)c3)n1CC2 [Example 47, (R)-3-(3-fluorophenyl)-N-(1-hydroxy-3-(1H-indol-3-yl)propan-2-yl)-8-methoxy-9-(morpholine-4-carbonyl)-5,6-dihydropyrrolo[2,1-a]isoquinoline-2-carboxamide]",100 to 1000 nM
